As usually defined, the EC50 is the midpoint of the concentration-response curve. Broadly, the IC50 is the concentration that inhibits the measured activity by half.

This is an account of results in patent US20260240878A1, “PTP1B/TC-PTP DUAL INHIBITORS AND PROTEIN DEGRADERS” (Purdue Research Foundation, priority 2023, published 2026).

The subject of assay [1] is compound 47-mediated PTP1B and TC-PTP degradation. Briefly: Degradation mechanism verification in HEK293 cells (pretreatment with pathway blockers). It counts as cell-based. To be noted: pretreatment then 100 nM compound 47 for 4 hours. On the procedure:
Cells were pre-treated with indicated concentration of MLN4924 (prevents ubiquitination), MG132 (blocks proteasome activity), lenalidomide (prevents CRBN binding) or (S,R,S)-AHPC-Me (prevents VHL binding) followed by 4 hours of treatment with compound 47 at 100 nM showing compound 47-mediated PTP1B/TC-PTP degradation depends on the ubiquitination-proteasome pathway. No degradation was observed when cells were treated with 100 nM cis-compound 47 (inactivated degrader) for 4 hours.
PROTAC-mediated protein degradation requires the obligatory formation of afunctional ternary complex of target protein-PROTAC-E3 ligase to enable target protein ubiquitination by the E3 ligase, followed by proteasomal degradation. The VHL E3 ligase dependency for compound 47 induced PTP1B and TC-PTP degradation was confirmed by preparing cis-isomer of compound 47 (cis-47) in which the VHL E3 ligand was replaced with (S,S,S)-AHPC-Me, an epimer of (S,R,S)-AHPC-Me with diminished affinity for VHL. […] Moreover, the addition of the VHL ligand (S,R,S)-AHPC-Me reduced the compound 47-mediated degradation of the two proteins (FIG. 6A). In contrast, pretreatment of the cell with lenalidomide, a ligand for cereblon (another E3 ligase commonly employed for PROTAC development), had no effect on compound 47-mediated PTP1B and TC-PTP degradation (FIG. 6A). […] The compound 47 mediated PTP1B and TC-PTP degradation and proteasome dependency were also verified by immunofluorescent imaging (FIGS. 6B and 6C).

In another assay the test system is pSTAT1. Put plainly: STAT1 phosphorylation in IFN-γ stimulated HEK293 cells (western blot). To be noted: Homo sapiens; HEK293 cells, 16 hours, 20 ng/ml IFN-γ; read-out: EC50 of pSTAT1 activation. It counts as cell-based. As for the experimental part: Wild-type HEK293 cells were treated with compound 47 or ABBV-CLS-484 for 16 hours, and stimulated with 20 ng/ml IFN-γ to induce JAK-STAT signaling pathway activation.
Abbvie and Calico developed a potent PTP1B/TC-PTP inhibitor ABBV-CLS-484 (disclosed in International PCT application WO2019246513), and it is currently being evaluated as a treatment for locally advanced or metastatic tumors (NCT04777994).

The target in assay [2] is T1, PTP1B (Homo sapiens, UniProt P18031).
T1 sequence (P18031 1-435): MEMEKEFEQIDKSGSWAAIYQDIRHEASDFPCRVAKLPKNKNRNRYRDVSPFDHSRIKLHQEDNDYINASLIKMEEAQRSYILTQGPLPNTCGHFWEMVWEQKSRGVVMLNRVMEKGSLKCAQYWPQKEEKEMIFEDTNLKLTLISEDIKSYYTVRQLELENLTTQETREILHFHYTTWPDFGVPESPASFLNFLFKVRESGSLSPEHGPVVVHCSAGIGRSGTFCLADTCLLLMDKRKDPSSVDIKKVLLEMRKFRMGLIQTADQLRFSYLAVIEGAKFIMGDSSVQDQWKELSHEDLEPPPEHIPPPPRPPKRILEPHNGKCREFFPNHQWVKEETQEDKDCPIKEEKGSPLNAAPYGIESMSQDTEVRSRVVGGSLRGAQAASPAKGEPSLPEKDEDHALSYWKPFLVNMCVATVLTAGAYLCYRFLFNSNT
Briefly: PTP activity assay with pNPP substrate (IC50, Ki, mode of inhibition). The format is biochemical. As to conditions: pNPP 2 mM, pH 7.0, 25° C.; read-out: IC50, nM PTP1B. In outline: (§1)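 Hydrolysis of pNPP measured spectrophotometrically in pH 7.0 DMG buffer (EDTA, NaCl, DTT, BSA) at 25 °C, 0.4 nM enzyme. IC50 at 2 mM pNPP (Km) over an inhibitor titration; mode of inhibition and Ki from rates across varied pNPP and inhibitor levels, fitted to enzyme kinetic models.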

For assay [3], the target named is T2, TC-PTP (Homo sapiens, UniProt P17706).
T2 sequence (P17706 1-415): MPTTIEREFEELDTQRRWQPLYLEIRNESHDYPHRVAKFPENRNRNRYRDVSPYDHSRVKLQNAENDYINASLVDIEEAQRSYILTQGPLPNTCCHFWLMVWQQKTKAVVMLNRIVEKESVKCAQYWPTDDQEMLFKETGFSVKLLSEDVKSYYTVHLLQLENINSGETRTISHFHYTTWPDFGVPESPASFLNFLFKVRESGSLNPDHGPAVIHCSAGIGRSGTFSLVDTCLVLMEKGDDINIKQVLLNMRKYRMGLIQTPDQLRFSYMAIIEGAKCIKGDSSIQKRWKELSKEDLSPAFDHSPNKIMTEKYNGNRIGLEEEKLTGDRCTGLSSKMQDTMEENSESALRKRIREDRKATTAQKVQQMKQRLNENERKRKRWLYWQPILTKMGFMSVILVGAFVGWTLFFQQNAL
Described as above. It counts as biochemical. To be noted: pNPP 2 mM, pH 7.0, 25° C.; read-out: IC50, nM TC-PTP. In short, it runs like this: as §1

Assay [4] concerns the target T2, TC-PTP. Briefly: Degradation assay in HEK293 cells (immunoblotting). The format is cell-based. Further details: Degradation assay was conducted in HEK293 cells with 1 μM degrader and 24 hours incubation; endogenous in cells; host or cells: HEK293. To be noted: 100 nM, 4 hours.
Assay [5] has as its target T1, PTP1B. Briefly: Degradation assay in HEK293 cells (immunoblotting). As to conditions: 100 nM, 4 hours. Details: Degradation assay was conducted in HEK293 cells with 1 μM degrader and 24 hours incubation; endogenous in cells; host or cells: HEK293. The format is cell-based. (In general: Immunoblotting shows a protein as a band on a membrane.)

Structures are written as SMILES. *1 amine or outer side, *2 acyl side, *3 side chain or, on linkers, in order; H or OH if unused. Where a SMILES comes first, the peptide text is derived from it. [ ]: non-standard residue; d: D form. The star is where a group is joined. NHCH2(1,3-C6H4)CH2CO = O=C(Cc1cccc(CN[*:1])c1)[*:2]; F2Pmp = N[C@@H](Cc1ccc(C(F)(F)P(=O)(O)O)cc1)C(=O)O; Phenylacetyl(4-OH,3-OMe) = COc1cc(CC(=O)*)ccc1O; Benzoyl(3-Br,4-Me) = Cc1ccc(C(=O)*)cc1Br; X1 = Cc1ncsc1-c1ccc([C@H](C)N*)cc1; cisHyp = O=C(O)[C@@H]1C[C@H](O)CN1; Tle = CC(C)(C)[C@H](N)C(=O)O; Cbz = O=C(OCc1ccccc1)*

With `Cc1ncsc1-c1ccc([C@H](C)NC(=O)[C@@H]2C[C@@H](O)CN2C(=O)[C@@H](N)C(C)(C)C)cc1` [(S,R,S)-AHPC-Me], the “effect of pretreatment on compound 47-mediated PTP1B and TC-PTP degradation” value (“effect of pretreatment” below) in assay [1] was “reduced”.

Consider `CC(C)CCN[C@@H]1CCc2cc(O)c(N3CC(=O)NS3(=O)=O)c(F)c2C1` [ABBV-CLS-484, reference compound], for which the concentration for a half-maximal effect (EC50) with pSTAT1 amounted to 79.7 nM. As for `CC(C)C[C@@H](C=O)NC(=O)[C@H](CC(C)C)NC(=O)[C@H](CC(C)C)NC(=O)OCc1ccccc1` [MG-132] (Cbz-Leu-Leu-Leu-aldehyde), the “effect of pretreatment” value in assay [1] was “markedly reduced”. The same measure, in the same setting: the result for `NS(=O)(=O)OC[C@@H]1C[C@@H](n2ccc3c(N[C@H]4CCc5ccccc54)ncnc32)C[C@@H]1O` [MLN-4924] reads “markedly reduced”. `COc1cc(CC(=O)N[C@@H](Cc2ccccc2)C(=O)N[C@@H](Cc2ccc(C(F)(F)P(=O)(O)O)cc2)C(=O)N[C@@H](CCCCNC(=O)c2ccc(C)c(Br)c2)C(=O)NCc2cccc(CC(=O)N[C@H](C(=O)N3C[C@@H](O)C[C@H]3C(=O)N[C@@H](C)c3ccc(-c4scnc4C)cc3)C(C)(C)C)c2)ccc1O` [cis-47] ({Phenylacetyl(4-OH,3-OMe)}-F[F2Pmp]K(Benzoyl(3-Br,4-Me))[NHCH2(1,3-C6H4)CH2CO][Tle][cisHyp]-X1): the IC50 at PTP1B [2] came to 25.1 ± 1.6 nM; at TC-PTP [3], 29.7 ± 2.1 nM. In addition, the TC-PTP degradation result on TC-PTP [4] is “failed to degrade”. For the same compound, at PTP1B [5], the PTP1B degradation entry is “failed to degrade”.

`Nc1cccc2c1CN(C1CCC(=O)NC1=O)C2=O` (stereo not drawn) [lenalidomide]: the “effect of pretreatment” value in assay [1] is “had no effect”.
